“Also recorded” adds a separate entry of the source.
What was measured:
A431 tumor = test: In vivo fluorescence imaging of Pan-IR700 in A431 tumors; design: species or system mice
Description: (§1) To confirm antigen specific localization of Pan-IR700, 1×10^6 of 3T3/HER2 cells (HER1 negative) were injected subcutaneously in the right dorsum at the same time of A431 cells injection. […] Regions of interest (ROI) for both tumor and background were placed for equivalent sized areas containing the same number of pixels. Tumor to background ratio (TBR) was calculated using the following formula: TBR=((mean tumor intensity)−(mean background intensity))/((mean non-tumor intensity)−(mean background intensity)).

3T3/HER2 tumor = test: In vivo fluorescence imaging of Pan-IR700 in HER1 negative tumor; design: species or system mice; settings: mouse, listed as Pan-1R700
Description: as §1

A431 (HER1+) tumors = test: In vivo PIT efficacy in A431 tumors
Description: To determine the effect of Pan-IR700 or carrier alone followed by PIT, the following methods were used. […] Four days after A431 cell injection as described above, tumor volume reaching around 40 mm^3 were selected for the study. […] To test a short-term toxicity, 300 μg of Pan-IR700 was repeatedly administrated intravenously for non-tumor-bearing mice, twice a week, for 4 weeks.

A431 cells = test: Cell pellet FLT studies; format: cell-based
Description: Reagents. […] All other chemicals used were of reagent grade. […] Then the mixture was purified with a Sephadex G50 column (PD-10; GE Healthcare). The protein concentrations were determined with Coomassie Plus protein assay kit (Pierce Biotechnology) by measuring light absorption at 595 nm (8453 Value System; Agilent Technologies). […] The number of IR700 per antibody was approximately 4 for the 1:4.5 reaction conditions. The addition of 0.4% SDS to the sample dissociated the fluorophores from each other, effectively causing dequenching. Quenching efficiency (QE) for a particular conjugation is defined as the fluorescence intensity with SDS divided by fluorescence intensity without SDS. […] Pan-1R700 was kept at 4° C. in the refrigerator as a stock solution. Fluorescence lifetime measurements. FLT experiments were performed with the eXplore OptixTm-MX2 system (ART Advanced Research Technologies, Inc.) (Hutchinson et al., Biophys J 68:1574-82, 1995; Ma et al., Appl Opt 46:1650-7, 2007). […] Lifetime values and lifetime mapping were calculated to fit fluorescence temporal point-spread functions (TPSFs) as single-exponential models with the Fit TPSF tool. […] Power densities were measured with an optical power meter (PM 100, Thorlabs). […] The fluorescence intensities and lifetimes of each sample were determined using the Optix MX2 system at room temperature within a 1.7 ml centrifuge tube. To investigate the effect of PIT using Pan-1R700, the FLT of each sample at the concentration of 50 pg/mL was measured after irradiating the samples at a PIT dose of 0, 2, 4, 8, 15, 30 J/cm2. […] The fluorescence intensities and lifetimes of each sample were then obtained. […] After that, these pellets were gently washed with PBS×1 and fluorescence intensity and lifetime images were obtained. To detect the antigen specific localization of IR700 and to confirm the morphological changes of A431 cells before and after PIT, fluorescence microscopy was performed using Olympus BX61 microscope (Olympus America) equipped with the following filters: a 590-650 nm excitation filter, a 665-740 nm band pass emission filter. […]

A431 tumors = test: Histological analysis immediately after PIT; format: in vivo, mice

Pan-IR700: Panitumumab (anti-human EGFR IgG2 MAb) conjugated to IR700; about 3 to 4 IR700 per antibody
fluorescence intensity of tumor, 300 μg versus 50 μg injection (A431 tumor; 1 day after injection): more than 3 times | TBR, 300 μg versus 50 μg injection (A431 tumor; mouse, in vivo): lower | fluorescence intensity in tumor over time (A431 tumor; mouse, in vivo): decreased gradually over days | other localization of IR700 (biodistribution) (A431 tumor; mouse, in vivo): no other specific localization of IR700 except for bladder accumulation on day 1 | tumor localization (in vivo fluorescence imaging) (A431 tumor; mouse, in vivo): localized to the A431 tumor | fluorescence of HER1 negative tumor (3T3/HER2 tumor): the same as that of background; also recorded: did not show detectable fluorescence | tumor shrinkage of irradiated tumor (A431 (HER1+) tumors; 300 μg, NIR light on day 1): Tumor shrinkage was confirmed on day 7 | survival time (A431 (HER1+) tumors; 30 J cm^−2): significant increases in survival time | tumor growth (A431 (HER1+) tumors; 30 J cm^−2, day 3, 7, 10, 14 and 17 after treatment): significant tumor growth inhibition | lethal side effects (A431 (HER1+) tumors; during or after the treatment): no lethal side effects were found | antitumor activity, 50 μg versus 300 μg (A431 (HER1+) tumors; following irradiation): less antitumor activity | pathological analysis of tumor (A431 (HER1+) tumors; four days following PIT): only scant viable A431 tumor cells were present | day at which PIT treated tumors began to shrink (A431 (HER1+) tumors; mouse, in vivo): 2 days | tissue edema (A431 (HER1+) tumors; mouse, in vivo): tissue edema developed superficially | shortening of FLT (A431 cells; 8 J/cm^2 versus before light exposure): 9.1% | shortening of FLT (A431 cells; 15 J/cm^2 versus before light exposure): 10.1% | shortening of FLT (A431 cells; 30 J/cm^2 versus before light exposure): 13.1% | necrosis (H-E histology) (A431 tumors; 10 J/cm^2): necrotic cell damage was found in only limited areas | necrosis (H-E histology) (A431 tumors; 30 or 50 J/cm^2): Necrotic damage was diffuse and intense
